PMC6976987 (Molecular Genetics and Metabolism Reports, 2020)

Test: Rifampin drug interaction study: eliglustat pharmacokinetics in healthy adults
Format: in vivo, human
Conditions: for increase in eliglustat AUC: single infusion of rifampin 600 mg with single oral dose of eliglustat 127 mg; for Ratio (%) of geometric least squares mean, AUC0-t / AUC: 0 to 12 h; for Tmax: median (minimum, maximum); for AUC: AUC0-τ
[1] = CYP2D6 PMs, eliglustat 84 mg BID with oral rifampin 600 mg QD
[2] = CYP2D6 PMs, multiple dose Day 6, test 600 mg rifampin oral QD + 84 mg eliglustat oral BID (N = 6) vs reference 84 mg eliglustat oral BID alone (N = 6)
[3] = CYP2D6 non-PMs, eliglustat 127 mg BID with oral rifampin 600 mg QD
[4] = CYP2D6 non-PMs, multiple dose Day 6, test 600 mg rifampin oral QD + 127 mg eliglustat oral BID (N = 18) vs reference 127 mg eliglustat oral BID alone (N = 19)
[5] = human, plasma, oral, 84 mg, CYP2D6 PMs, eliglustat 84 mg BID, monotherapy period Days 2 to 6, mean (SD)
[6] = human, plasma, oral, 127 mg, CYP2D6 non-PMs (N = 19), eliglustat 127 mg BID, monotherapy period Days 2 to 6, mean (SD)
[7] = human, plasma, oral, 127 mg, IMs/EMs only (N = 14), eliglustat 127 mg BID, monotherapy period Days 2 to 6, mean (SD)
[8] = human, plasma, po, CYP2D6 PMs, eliglustat 84 mg BID + rifampin 600 mg oral QD, concomitant period Days 2 to 6, mean (SD)
[9] = human, plasma, po, CYP2D6 non-PMs (N = 18), eliglustat 127 mg BID + rifampin 600 mg oral QD, concomitant period Days 2 to 6, mean (SD)
[10] = human, plasma, po, IMs/EMs only (N = 13), eliglustat 127 mg BID + rifampin 600 mg oral QD, concomitant period Days 2 to 6, mean (SD)

CCCCCCCC(=O)N[C@H](CN1CCCC1)[C@H](O)c1ccc2c(c1)OCCO2 [eliglustat]
increase in eliglustat AUC (CYP2D6 EMs): 24%
reduction of eliglustat AUC0-τ compared with eliglustat alone [1]: > 95%
reduction of eliglustat Cmax compared with eliglustat alone [1]: > 95%
Ratio (%) of geometric least squares mean, Cmax [2]: 0.05%
Ratio (%) of geometric least squares mean, AUC0-t [2]: 0.04%
effect on mean eliglustat exposure (CYP2D6 PMs, single 30-min infusion of rifampin 600 mg with single oral dose of eliglustat 84 mg): no effect
Ratio (%) of geometric least squares mean, AUC0-∞ (CYP2D6 PMs, single dose Day 1, test 600 mg rifampin IV + 84 mg eliglustat oral (N = 6) vs reference 84 mg eliglustat oral (N = 5)): 0.95%
Ratio (%) of geometric least squares mean, Cmax (CYP2D6 PMs, single dose Day 1, test 600 mg rifampin IV + 84 mg eliglustat oral (N = 6) vs reference 84 mg eliglustat oral (N = 6)): 0.97%
reduction of eliglustat AUC0-τ (exposure) compared with eliglustat alone [3]: > 85%
reduction of eliglustat Cmax compared with eliglustat alone [3]: > 85%
Ratio (%) of geometric least squares mean, Cmax [4]: 0.16%
Ratio (%) of geometric least squares mean, AUC0-t [4]: 0.15%
Ratio (%) of geometric least squares mean, AUC0-∞ (CYP2D6 non-PMs, single dose Day 1, test 600 mg rifampin IV + 127 mg eliglustat oral (N = 17) vs reference 127 mg eliglustat oral alone (N = 19)): 1.19%
Ratio (%) of geometric least squares mean, Cmax (CYP2D6 non-PMs, single dose Day 1, test 600 mg rifampin IV + 127 mg eliglustat oral (N = 19) vs reference 127 mg eliglustat oral alone (N = 19)): 1.19%
increase in eliglustat AUC (URMs): 11%
Cmax (human, plasma, iv, CYP2D6 non-PMs (N = 19), eliglustat 127 mg single dose + rifampin 600 mg IV single dose, concomitant period Day 1, mean (SD)): 17.9 ng/mL
half-life (human, plasma, iv, t1/2z, CYP2D6 PMs, eliglustat 84 mg single dose + rifampin 600 mg IV single dose, concomitant period Day 1, mean (SD)): 6.9 h
Tmax (human, plasma, iv, CYP2D6 PMs, eliglustat 84 mg single dose + rifampin 600 mg IV single dose, concomitant period Day 1): 4 h
Tmax (human, plasma, iv, CYP2D6 non-PMs (N = 19), eliglustat 127 mg single dose + rifampin 600 mg IV single dose, concomitant period Day 1): 3 h
AUC [5]: 922 ng·h/mL
Cmax [5]: 113 ng/mL
Tmax (human, plasma, oral, 84 mg, CYP2D6 PMs, eliglustat 84 mg BID, monotherapy period Days 2 to 6): 3 h
AUC [6]: 295 ng·h/mL
AUC [7]: 378 ng·h/mL
Cmax [6]: 42.8 ng/mL
Cmax [7]: 54.7 ng/mL
Tmax (human, plasma, oral, 127 mg, CYP2D6 non-PMs (N = 19), eliglustat 127 mg BID, monotherapy period Days 2 to 6): 2 h
AUC [8]: 38 ng·h/mL
AUC [9]: 29.3 ng·h/mL
AUC [10]: 31 ng·h/mL
Cmax [8]: 5.7 ng/mL
Cmax [9]: 4.67 ng/mL
Cmax [10]: 4.89 ng/mL
Tmax (human, plasma, po, CYP2D6 PMs, eliglustat 84 mg BID + rifampin 600 mg oral QD, concomitant period Days 2 to 6): 2.5 h
Tmax (human, plasma, po, CYP2D6 non-PMs (N = 18), eliglustat 127 mg BID + rifampin 600 mg oral QD, concomitant period Days 2 to 6): 1.5 h
changes in eliglustat exposure (in the presence of a single IV infusion of rifampin, called negligible): < 19%
effect of a single intravenous dose of rifampin on eliglustat (single IV rifampin dose, overall statement): no effect
